According to article PMC6511888, “Synthesis, Biological Evaluation, and Molecular Modeling Studies of New Thiadiazole Derivatives as Potent P2X7 Receptor Inhibitors” (Frontiers in Chemistry, 2019):

What was measured:
Caco-2 cell permeability = assay type: in vitro ADME; set-up: Papp at 60 min: dose or concentration left out as unconfirmed; details: human, Caco-2, pH 7.4; apical to basolateral (A - B); mean ± standard error of three experiments; read-out: Caco-2 apparent permeability (Papp)
Procedure: Corning® Costar® Transwell plates (Sigma-Aldrich, St. Louis, MO, USA) were used for seeding Caco-2 cells at 3 × 10^5 cells/well bathed with DMEM supplemented with 10% FSB according to Faria and collaborator in 2018 (Faria et al., [2018]). This culture was maintained for up to 21 days in a humidified incubator at 37°C and 5% CO2. Thiadiazole analog, vinblastine (poor permeability control), and propranolol (high permeability control) stock solutions, all at a concentration of 100 mM, were prepared in Hanks' balanced salt solution (HBSS) containing 25 mM HEPES at pH 7.4 with 0.5% (v/v) DMSO. Transport buffer (0.3 ml) was added to each well to equilibrate the cells with the transport buffer. A 24-well enhanced recovery plate containing 1 ml of transport buffer (pH 7.4) was substituted for the feeder tray. The transport buffer in the apical wells was removed, and 0.3 ml of a solution containing thiadiazoles 9b, 9c, 9f, or 11c; vinblastine; or propranolol was added. Then, the cells were replaced for incubation for 60 min. Lucifer yellow concentrations in the donor and acceptor wells were measured in the last of this incubation. Lucifer yellow was measured using an M5 plate reader ([…]) at an excitation wavelength of 485 nm and an emission wavelength of 530 nm.

[1] = Stability in mouse liver microsomes; assay type: in vitro ADME; details: male, pH 7.4, read-out: LM stability mouse (CLint)
Procedure: Thiadiazole 9f stability was evaluated in liver microsomes from male mice and humans according to Faria et al. in 2018 (Faria et al., [2018]). Both solutions contained a final protein concentration of 0.5 mg/ml (0.1 M phosphate buffer) at pH 7.4. Microsomes were preincubated with 9f (1 μM) and DMSO ([…]) at 37°C before NADPH (1 mM) addition. A control for the reaction was a buffer containing 0.1 M phosphate at pH 7.4 in a final volume of 50 μl. Diazepam and verapamil were used as positive controls for mice and humans, respectively. Both types of microsomes were treated with 9f for 0, 5, 15, 30, and 45 min and the negative control [minus Nicotinamide adenine dinucleotide phosphate (NADPH)] for 45 min. To stop the reactions, methanol (50 μl) was added at the appropriate time points, and the samples were centrifuged (1,640 × g) for 20 min at 4°C to […] protein precipitation.
In vitro intrinsic clearance (CLint mic) for the metabolism of 9f in mouse and human liver microsomes was calculated using the equations below:
Half-life (t1/2) (minutes) = 0.693/k (1)
V(μL/mg) = volume of the incubation solution (μl)/protein in the incubation solution (mg) (2)
Intrinsic clearance (CLint) (μl/minutes/mg protein) = V × 0.693/t1/2 (3) according to the manufacturer's instructions.

P2X7R = target: T1, P2X7R (Mus musculus, UniProt Q9Z1M0); assay: Dye uptake assay (propidium iodide) in mouse peritoneal macrophages; assay type: cell-based; details: mean ± SD; for inhibition at 10 µM: percentage relative to the maximum uptake of propidium stimulated by 1 mM ATP only; for IC50: propidium uptake assay, mice peritoneal macrophages
T1 construct: plated for 24 h before dye uptake assays, whole-cell patch clamp experiments, and IL-1β release assays; endogenous in cells; host or cells: mouse (Swiss Webster) peritoneal macrophages
T1 sequence (Q9Z1M0 1-595): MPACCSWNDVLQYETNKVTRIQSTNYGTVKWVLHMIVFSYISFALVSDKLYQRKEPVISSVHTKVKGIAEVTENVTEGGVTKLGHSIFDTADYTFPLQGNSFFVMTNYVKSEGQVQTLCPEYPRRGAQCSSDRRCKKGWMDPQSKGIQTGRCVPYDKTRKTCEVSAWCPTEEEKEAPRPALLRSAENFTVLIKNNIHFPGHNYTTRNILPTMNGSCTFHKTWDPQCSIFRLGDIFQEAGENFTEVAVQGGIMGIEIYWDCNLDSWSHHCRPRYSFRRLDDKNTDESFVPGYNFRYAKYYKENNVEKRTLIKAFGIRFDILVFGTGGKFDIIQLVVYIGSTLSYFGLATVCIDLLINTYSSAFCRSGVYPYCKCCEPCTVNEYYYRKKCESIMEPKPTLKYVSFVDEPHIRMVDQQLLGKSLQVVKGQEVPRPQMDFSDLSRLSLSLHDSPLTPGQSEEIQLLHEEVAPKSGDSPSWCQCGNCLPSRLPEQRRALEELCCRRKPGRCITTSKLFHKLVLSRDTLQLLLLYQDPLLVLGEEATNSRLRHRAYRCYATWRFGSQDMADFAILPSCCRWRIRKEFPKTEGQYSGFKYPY
Procedure: Our protocols adhered to the Ethical Principles in Animal Experimentation adopted by the Brazilian College of Animal Experimentation and approved by the FIOCRUZ Research Ethics Committee (Faria et al., [2005]; number L039- 2016). Male mouse (Swiss Webster) peritoneal macrophages were collected from peritoneal cavity lavage and plated for 24 h before dye uptake assays, whole-cell patch clamp experiments, and IL-1β release assays.
HEK-293 cells transfected with hP2X7R and mouse peritoneal macrophages were plated at 2.5 × 10^6 or 5 × 10^5 cells/ml, respectively, in 96-well culture plates containing DMEM with 10% FBS and anti-biotics (50 U/ml penicillin and […] streptomycin) in a humidified 5% CO2 atmosphere at 37°C for 24 h (Faria et al., [2018]).
[…] In the last 5 min of ATP incubation, propidium iodide for macrophages (PI; 750 nM) or ethidium bromide (EB; 25 μM) for HEK-293 cells was added to all wells. PI dye was excited at a wavelength of 530 nm, and its fluorescence emission was read at a wavelength of 590 nm using an M5 plate reader (Molecular Devices). EB dye was excited at a wavelength of 530 nm and emitted at a wavelength of 620 nm.

[2] = LDH release assay (toxicity); assay type: cell-based, mouse; details: mouse peritoneal macrophages; for IC50 at 24 h: read-out: Macrophages IC50 (toxic effect); for CC50 at 24 h: mouse, peritoneal macrophages, toxicity measured for 24 h
Procedure: (§1) Mouse peritoneal macrophages (5 × 10^5 cells) and HEK-293 cells transfected with P2X7R (5 × 10^5 cells) were plated in a 96-well-plate for 24 h before the treatment. […] The supernatant collected in this assay was used to measure the presence of LDH in the media using a cytotoxicity detection kit (Sigma kit for LDH) according to the manufacturer's instructions (Faria et al., [2018]).

[3] = test system: mouse peritoneal macrophages; assay: LDH release assay (toxicity); assay type: cell-based; details: 10 μM; relative to maximum LDH release caused by 0.05% Triton X-100; cell type not given; mean ± SD
Procedure: as §1

Row | SMILES | Papp at 60 min (Caco-2 cell permeability) | microsomal CLint at 1 μM [1] | melting point | inhibition at 10 µM (P2X7R) | IC50 (P2X7R) | IC50 at 24 h [2] | CC50 at 24 h [2] | % LDH release [3]
1 | N#Cc1cnn(-c2nnc(-c3ccccc3Cl)s2)c1N [Compound 9b] | 50.1 ± 1.1 ×10⁻⁶ cm/s | 14.3 µL/min/mg | 250 to 251 °C | 30 ± 0.6% | 111 ± 9 nM | 2.27 ± 0.086 mM | 2.27 mM | 15.8 ± 1.3%
2 | CCOC(=O)c1cnn(-c2nnc(-c3ccccc3Cl)s2)c1N [Compound 9f] | 73.4 ± 3.3 ×10⁻⁶ cm/s | 26.7 µL/min/mg | 190 to 191 °C | 15.7 ± 0.6% | 16 ± 2 nM | 6.08 ± 0.102 mM | 3.9 mM | 42.5 ± 0.4%
3 | COc1ccc(CC(=O)NC(NC(=NC#N)Nc2cccc3ncccc23)C(C)(C)C)cc1OC (stereo not shown) [Compound A740003, N-(1-{[(cyanoimino)(5-quinolinylamino)methyl]amino}-2,2-dimethylpropyl)-2-(3,4-dimethoxyphenyl)acetamide] |  |  |  |  | 108 ± 16 nM | 0.325 ± 0.006 mM |  | 
4 | N#Cc1cnn(-c2nnc(-c3ccc(F)cc3)s2)c1N [Compound 9c] | 56.1 ± 2.1 ×10⁻⁶ cm/s | 11.6 µL/min/mg | 262 to 263 °C | 28.2 ± 0.7% | 109 ± 11 nM | 3.9 ± 0.077 mM | 6.08 mM | 10 ± 0.7%
5 | Cc1cc(C)n(-c2nnc(-c3ccc(F)cc3)s2)n1 [Compound 11c, 2-(3,5-dimethyl-1H-pyrazol-1-yl)-5-(4-fluorophenyl)-1,3,4-thiadiazole] | 77.9 ± 1 ×10⁻⁶ cm/s | 38.5 µL/min/mg | 174 °C | 29.2 ± 0.3% | 122 ± 13 nM | 3.24 ± 0.201 mM | 3.24 mM | 24 ± 1.7%
